Results: US11964971B2, “Methods and compositions for modulating splicing” (Skyhawk Therapeutics, Inc., priority 2019, dated 2024)

Key:
[1] = system: SMN protein; experiment: SMN protein assay (MSD) in SMA patient fibroblasts (GM03813); format: cell-based, human
Description: Compounds are tested on spinal muscular atrophy (SMA) patient fibroblasts (GM03813, Coriell) at doses ranging from 2.5 μM to 0.6 nM. 7000 cells/well are seeded in 96-well plates. Compounds are incubated for 48 hours and the cells were lysed with 100 μL of lysis buffer. 20 μL of lysate is used for SMN protein measurement by Mesoscale Discovery (MSD) assay developed by PharmOptima (Michigan). A standard curve prepared with SMN protein ranging from […] is used in each MSD plate to calculate the absolute SMN protein amount in each sample.

[2] = system: MDR1 (P-gp); experiment: MDCK-MDR1 permeability assay, blood-brain-barrier penetration potential; conditions: dog, MDCK-MDR1, pH 7.4, MDCK-MDR1 Efflux Ratio
[3] = system: MDR1; experiment: in vitro; conditions: dog; for Papp A→B at 120 min, 5 μM: MDCK-MDR1, pH 7.4, MDCK-MDR1: Papp A-B (10^−6, cm/s); for Papp B→A at 120 min, 5 μM: MDCK-MDR1, pH 7.4, MDCK-MDR1: Papp B-A (10^−6, cm/s)
[4] = system: MDR1-MDCK cell monolayers; conditions: dog, MDCK-MDR1, 120 min, 5 μM, pH 7.4

SMILES | EC50 [1] | efflux ratio at 120 min, 5 μM [2] | Papp A→B at 120 min, 5 μM [3] | Papp B→A at 120 min, 5 μM [3] | MDCK-MDR1: % Recov A-B (%) [4] | MDCK-MDR1: % Recov B-A (%) [4]
Oc1cc(-c2cn[nH]c2)ccc1-c1cnc(O[C@H]2CC3CC[C@@H](N3)[C@H]2F)cn1 (single isomer, unassigned) [Compound 1E1] | 501 to 10000 nM | 4 | 8.22 ×10⁻⁶ cm/s | 33.4 ×10⁻⁶ cm/s | 68% | 82%
Oc1cc(-c2cn[nH]c2)ccc1-c1cnc(O[C@@H]2C[C@H]3CCC(N3)[C@@H]2F)cn1 (single isomer, unassigned) [Compound 1E2] | 501 to 10000 nM | 5 | 7.49 ×10⁻⁶ cm/s | 40.1 ×10⁻⁶ cm/s | 66% | 79%
CN(c1cnc(-c2ccc(-c3cnn(C)c3)cc2O)cn1)[C@@H]1[C@H](F)[C@H]2CCC(N2)[C@@H]1F (single isomer, unassigned) [Compound 4E2] | 16 to 50 nM | 6 | 4.94 ×10⁻⁶ cm/s | 27.9 ×10⁻⁶ cm/s | 44% | 63%
CN(c1cnc(-c2ccc(-c3cn[nH]c3)cc2O)cn1)[C@@H]1C[C@H]2CCCC(N2)[C@@H]1F (single isomer, unassigned) [Compound 6E1] | 501 to 10000 nM | 9 | 4.58 ×10⁻⁶ cm/s | 42.3 ×10⁻⁶ cm/s | 76% | 69%
CN(c1cnc(-c2ccc(-c3cn[nH]c3)cc2O)cn1)[C@@H]1C[C@H]2CCC(N2)[C@@H]1F (single isomer, unassigned) [Compound 8E1] | 501 to 10000 nM | 9 | 3.58 ×10⁻⁶ cm/s | 33.3 ×10⁻⁶ cm/s | 72% | 71%
CN(c1cnc(-c2ccc(-c3cn[nH]c3)cc2O)cn1)[C@H]1CC2N[C@@H](C1)CC2(F)F (single isomer, unassigned) [Compound 9E1] | 501 to 10000 nM | 3 | 17.9 ×10⁻⁶ cm/s | 51.6 ×10⁻⁶ cm/s | 60% | 77%
CN(c1cnc(-c2ccc(-c3cn[nH]c3)cc2O)cn1)[C@H]1CC2CC(F)(F)[C@H](C1)N2 (single isomer, unassigned) [Compound 9E2] | 16 to 50 nM | 3 | 19.9 ×10⁻⁶ cm/s | 55.4 ×10⁻⁶ cm/s | 71% | 90%
CN(c1cnc(-c2ccc(-c3cnn(C)c3)cc2O)cn1)[C@@H]1CC2CC(F)(F)[C@@H](C1)N2 (single isomer, unassigned) [Compound 10E1] | 501 to 10000 nM | 1 | 22.9 ×10⁻⁶ cm/s | 26.1 ×10⁻⁶ cm/s | 59% | 86%
CN(c1cnc(-c2ccc(-c3cnn(C)c3)cc2O)cn1)[C@@H]1CC2N[C@H](C1)CC2(F)F (single isomer, unassigned) [Compound 10E2] | 101 to 500 nM | 1 | 28.7 ×10⁻⁶ cm/s | 23.7 ×10⁻⁶ cm/s | 64% | 67%
Oc1cc(-n2ccnn2)c(F)cc1-c1cnc(N(C2CC2)[C@@H]2CC3CC[C@H](N3)[C@@H]2F)cn1 (single isomer, unassigned) [Compound 11E1] | 501 to 10000 nM | 7 | 5.25 ×10⁻⁶ cm/s | 35.9 ×10⁻⁶ cm/s | 74% | 83%
Oc1cc(-n2ccnn2)c(F)cc1-c1cnc(N(C2CC2)[C@H]2C[C@@H]3CCC(N3)[C@H]2F)cn1 (single isomer, unassigned) [Compound 11E2] | 501 to 10000 nM | 7 | 6.21 ×10⁻⁶ cm/s | 41.1 ×10⁻⁶ cm/s | 69% | 72%
CN(c1cnc(-c2cc(F)c(-c3ccn(C)c(=O)c3)cc2O)cn1)[C@@H]1CC2CCC[C@H](N2)[C@@H]1F (single isomer, unassigned) [Compound 12E1] | 101 to 500 nM | 28 | 1.99 ×10⁻⁶ cm/s | 54.9 ×10⁻⁶ cm/s | 78% | 83%
CN(c1cnc(-c2cc(F)c(-c3ccn(C)c(=O)c3)cc2O)cn1)[C@@H]1CC2CC[C@H](N2)[C@@H]1F (single isomer, unassigned) [Compound 13E1] | 101 to 500 nM | 49 |  | 106 ×10⁻⁶ cm/s | 454% | 
CN(C)C(=O)c1cc(O)c(-c2cnc(N(C)[C@@H]3CC4CC[C@H](N4)[C@@H]3F)cn2)cc1F (single isomer, unassigned) [Compound 14E1] | 501 to 10000 nM | 52 | 0.75 ×10⁻⁶ cm/s | 39.1 ×10⁻⁶ cm/s | 79% | 84%
CN(C)C(=O)c1cc(O)c(-c2cnc(N(C)[C@H]3C[C@@H]4CCC(N4)[C@H]3F)cn2)cc1F (single isomer, unassigned) [Compound 14E2] | 501 to 10000 nM | 65 | 0.91 ×10⁻⁶ cm/s | 59.1 ×10⁻⁶ cm/s | 87% | 88%
CNC(=O)c1cc(O)c(-c2cnc(N(C)[C@@H]3CC4CC[C@H](N4)[C@@H]3F)cn2)cc1F (single isomer, unassigned) [Compound 15E1] | 501 to 10000 nM | 24 | 2.74 ×10⁻⁶ cm/s | 64.4 ×10⁻⁶ cm/s | 86% | 97%
CNC(=O)c1cc(O)c(-c2cnc(N(C)[C@H]3C[C@@H]4CCC(N4)[C@H]3F)cn2)cc1F (single isomer, unassigned) [Compound 15E2] | 501 to 10000 nM | 26 | 2.66 ×10⁻⁶ cm/s | 68.8 ×10⁻⁶ cm/s | 85% | 86%
CN(c1cnc(-c2cc(F)c(-c3cnn(C)c3)cc2O)cn1)[C@H]1C[C@@H]2CCC(N2)[C@H]1F (single isomer, unassigned) [Compound 17E1] | 0.01 to 15 nM | 4 | 4.22 ×10⁻⁶ cm/s | 18.6 ×10⁻⁶ cm/s | 31% | 74%
CN(c1cnc(-c2cc3ncn(CC(F)(F)F)c(=O)c3cc2O)cn1)[C@@H]1CC2CCC[C@H](N2)[C@@H]1F (single isomer, unassigned) [Compound 18E1] | 501 to 10000 nM | 71 | 0.92 ×10⁻⁶ cm/s | 65.1 ×10⁻⁶ cm/s | 78% | 86%
CN(c1cnc(-c2cc3ccc(OCF)nc3cc2O)cn1)[C@@H]1CC2CC[C@H](N2)[C@@H]1F (single isomer, unassigned) [Compound 19E1] | 501 to 10000 nM | 9 | 2.13 ×10⁻⁶ cm/s | 18.6 ×10⁻⁶ cm/s | 24% | 57%
CN(c1cnc(-c2cc3ccc(OCF)nc3cc2O)cn1)[C@H]1C[C@@H]2CCC(N2)[C@H]1F (single isomer, unassigned) [Compound 19E2] | 501 to 10000 nM | 6 | 2.81 ×10⁻⁶ cm/s | 17.1 ×10⁻⁶ cm/s | 28% | 62%
CN(c1cnc(-c2cc3oc(C(=O)N4CCC4)cc3cc2O)cn1)[C@@H]1CC2CC[C@H](N2)[C@@H]1F (single isomer, unassigned) [Compound 20E1] | 501 to 10000 nM | 21 | 2.71 ×10⁻⁶ cm/s | 56.4 ×10⁻⁶ cm/s | 83% | 101%
CN(c1cnc(-c2cc3oc(C(=O)N4CCC4)cc3cc2O)cn1)[C@H]1C[C@@H]2CCC(N2)[C@H]1F (single isomer, unassigned) [Compound 20E2] | 501 to 10000 nM | 45 | 0.94 ×10⁻⁶ cm/s | 41.9 ×10⁻⁶ cm/s | 75% | 79%
CN(c1cnc(-c2cc(F)c(C3=CC(F)NC(F)=C3)cc2O)cn1)[C@H]1C[C@]2(C)CC[C@@](C)(N2)[C@H]1F (single isomer, unassigned) [Compound 63E2] | 501 to 10000 nM |  | 0.58 ×10⁻⁶ cm/s | 0.22 ×10⁻⁶ cm/s | 19% | 24%
Cc1noc(-c2ccc(-c3cnc(N(C)[C@@H]4CC5CC[C@H](N5)[C@@H]4F)cn3)c(O)c2)n1 (single isomer, unassigned) [Compound 70E1] | 501 to 10000 nM |  |  |  |  | 
Cc1noc(-c2ccc(-c3cnc(N(C)[C@H]4C[C@@H]5CCC(N5)[C@H]4F)cn3)c(O)c2)n1 (single isomer, unassigned) [Compound 70E2] | 101 to 500 nM |  |  |  |  | 
CN(c1cnc(-c2ccc3ccncc3c2O)cn1)[C@H]1C[C@@H]2CCC(N2)[C@H]1F (single isomer, unassigned) [Compound 71E2] | 16 to 50 nM |  |  |  |  | 
